Measurements from PubChem BioAssay (NCI).
Values joined by “and” are separate entries in the source; they are usually repeats but may differ in a detail not shown here. Identical values can stand only once.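 Method: 48-hour compound exposure of cells in 96-well plates, five concentrations, linear interpolation of endpoints. At the GI50, growth is halved. TGI is the concentration that stops growth completely.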

Key:
Test in all cases: NCI-60 cell line screen, 48 h
[1] = system: A498 renal
[2] = system: SK-MEL-28 melanoma
[3] = system: LXFL 529 NSCLC
[4] = system: SK-MEL-5 melanoma
[5] = system: K-562 leukemia
[6] = system: HL-60(TB) leukemia
[7] = system: DMS 114 small cell lung
[8] = system: RPMI-8226 leukemia
[9] = system: MDA-MB-231 breast
[10] = system: BT-549 breast

| Compound | TGI [1] | TGI [2] | TGI [3] | TGI [4] | TGI [5] | TGI [6] | TGI [7] | TGI [8] | TGI [9] | TGI [10] | GI50 [1] | GI50 [8] | GI50 [2] | GI50 [3] | GI50 [4] | GI50 [5] | GI50 [6] | GI50 [9] | GI50 [10] |
| --- | --- | --- | --- | --- | --- | --- | --- | --- | --- | --- | --- | --- | --- | --- | --- | --- | --- | --- | --- |
| CCOc1ccc2c(c1)[n+]([O-])c(C(N)=O)c(N)[n+]2[O-] | > 100 µM | > 100 µM | > 100 µM | > 100 µM | > 100 µM | > 100 µM | > 100 µM |  |  |  |  |  |  |  |  |  |  |  |  |
| CC(C)N1CCOC(c2ccc(O)c(O)c2)C1 (stereo unspecified) |  | > 100 µM | > 100 µM | > 100 µM | > 100 µM | > 100 µM | > 100 µM | > 100 µM |  |  |  |  |  |  |  |  |  |  |  |
| Cc1cccc(-c2nc(=S)[nH][nH]2)c1 | > 100 µM | > 100 µM | > 100 µM | > 100 µM | > 100 µM | > 100 µM |  | > 100 µM |  |  |  |  |  |  |  |  |  |  |  |
| CC1=NC2(C(=O)O)C3(C(=O)O)N=C(C)OC3(C(F)(F)F)C2(C(F)(F)F)O1 (stereo unspecified) | > 100 µM | > 100 µM |  |  | > 100 µM | > 100 µM | > 100 µM |  |  |  |  |  |  |  |  |  |  |  |  |
| CC(C)OC(=O)Nc1c([N+](=O)[O-])cc(C(F)(F)F)cc1[N+](=O)[O-] | > 100 µM | > 100 µM | > 100 µM | > 100 µM | > 46.4 µM | > 100 µM |  | > 100 µM | > 100 µM | > 100 µM |  |  |  |  |  |  |  |  |  |
| CCOc1ccc2c(c1)[n+]([O-])c(-c1ccccc1)c(N)[n+]2[O-] | > 100 µM | > 100 µM | > 100 µM | 51.5 µM | > 100 µM | > 100 µM | > 100 µM | > 100 µM |  |  |  |  |  |  |  |  |  |  |  |
| O=S(=O)(c1ccccc1)N1CCC1c1ccccc1 (stereo unspecified) | > 100 µM | > 100 µM |  | > 100 µM | > 100 µM | 85.1 µM | > 100 µM | > 100 µM |  |  |  |  |  |  |  |  |  |  |  |
| O=C1c2ccccc2C(=O)N1C/C=N/NS(=O)(=O)c1cccc([N+](=O)[O-])c1 | > 100 µM |  | > 100 µM | > 100 µM | > 100 µM | > 100 µM | > 100 µM | > 100 µM |  |  |  |  |  |  |  |  |  |  |  |
| [O-]c1ccccc1C=NCCN=Cc1ccccc1[O-].[O]=[U+2]=[O] | > 64.8 µM | > 78.7 µM | 53.3 µM | > 81.8 µM | > 100 µM | > 84.5 µM |  | > 31.6 µM |  |  | > 45.6 µM | 22.4 µM | > 50.9 µM | 17.8 µM | 41.7 µM | > 79.5 µM | > 48.4 µM |  |  |
| CCN(CC)CC(C(=O)Nc1c(C)cccc1C)/C(C)=N\NC(=S)NN (stereo unspecified) | > 100 µM | > 100 µM | > 100 µM | > 100 µM | > 100 µM | > 100 µM |  | > 100 µM |  |  |  |  |  |  |  |  |  |  |  |
| NCCNCCNCc1c2ccccc2c(CNCCNCCN)c2ccccc12 |  | > 100 µM | > 100 µM | > 100 µM | > 100 µM | > 100 µM | > 100 µM | > 100 µM |  |  |  |  |  |  |  |  |  |  |  |
| CSC(=Nc1ccc([N+](=O)[O-])cc1C#N)NC(=O)c1ccccc1 | > 100 µM | > 100 µM | > 100 µM | > 100 µM | > 100 µM | > 100 µM | > 100 µM | > 100 µM |  |  |  |  |  |  |  |  |  |  |  |
| CCN(CC)C(=O)c1cccc2c(OC)ccc(OC)c12 | > 100 µM | > 100 µM | > 100 µM | > 100 µM | > 100 µM | > 100 µM | > 100 µM | > 100 µM |  |  |  |  |  |  |  |  |  |  |  |
| CS(=O)(=O)N(CCC#N)c1ccc(/C=C2\N=C(c3ccccc3Cl)OC2=O)cc1 | > 100 µM | > 100 µM | > 100 µM | > 100 µM | > 100 µM | > 100 µM | > 100 µM | > 100 µM |  |  |  |  |  |  |  |  |  |  |  |
| O=c1c(-c2cccc3ccccc23)c(-c2cccc3ccccc23)c1=O | 18.1 µM | > 100 µM | > 85 µM | 40 µM | > 33.3 µM | 4.87 µM | 13.2 µM | > 100 µM |  |  |  |  |  |  |  |  |  |  |  |
| CC1COS(=O)N1c1ccccc1 (stereo unspecified) | > 100 µM | > 100 µM | > 100 µM | > 100 µM | > 100 µM | > 100 µM | > 100 µM | > 100 µM |  |  |  |  |  |  |  |  |  |  |  |
| COc1ccc(C(O)C(c2ccc(OCc3ccccc3)cc2)c2ccc(OCc3ccccc3)cc2)cc1 (stereo unspecified) |  | > 100 µM | > 100 µM | > 100 µM | > 100 µM | > 100 µM | > 100 µM | > 100 µM |  |  |  |  |  |  |  |  |  |  |  |
| CCOc1ccc2nc3cc(N)ccc3c(N)c2c1 | 29.1 µM and 37.5 µM | 15.7 µM and 15.9 µM |  | 13.3 µM and 12.8 µM | 20.2 µM and 25.4 µM | 42.2 µM and 43.7 µM |  | 43.5 µM and 38.4 µM | 22.8 µM and 17.6 µM | 8.28 µM and 4.91 µM | 2.78 µM and 12.7 µM | 15.4 µM and 13.9 µM | 4.4 µM and 4.3 µM |  | 3.31 µM and 3.03 µM | 6.03 µM and 6.26 µM | 19.8 µM and 20.2 µM | 10.2 µM and 4.44 µM | 2.23 µM and 1.8 µM |
| COc1cc(-c2csc(NC(=O)Nc3ccc(Cl)cc3)n2)cc(OC)c1OC | 8.03 µM | 7.12 µM |  | 5.2 µM | > 100 µM | 6.83 µM |  | 5.78 µM | 12.7 µM | 6.26 µM | 2.24 µM | 2.14 µM | 2.44 µM |  | 2.2 µM | 3.38 µM | 2.79 µM | 2.99 µM | 2.18 µM |
| CC(C)(Sc1cc(C(C)(C)C)c(O)c(C(C)(C)C)c1)Sc1cc(C(C)(C)C)c(O)c(C(C)(C)C)c1 | > 100 µM | > 100 µM |  | > 100 µM | 3.35 µM | 3.08 µM |  | > 100 µM | > 100 µM | > 100 µM |  |  |  |  |  |  |  |  |  |
| CCCCCOC(=O)c1c(C)[nH]c(/C=C2\N=C(c3ccc[nH]3)C=C2OC)c1C | 1.02 µM | 1.25 µM |  | 0.0726 µM | 1.25 µM | 0.281 µM |  | 0.24 µM | 0.216 µM | 1.1 µM | 0.124 µM | 0.028 µM | 0.129 µM |  | 0.0234 µM | 0.0421 µM | 0.0263 µM | < 0.0162 µM | 0.0469 µM |
| CCOP(=O)(OCC)C(C(=O)OC)C(=O)C(=O)Nc1cccc([N+](=O)[O-])c1 (stereo unspecified) | > 100 µM | > 100 µM | > 100 µM | > 100 µM | > 100 µM | > 100 µM | > 100 µM |  |  |  |  |  |  |  |  |  |  |  |  |
| COc1cc2c(cc1OCCCCCOc1ccc(-c3nc4ccccc4s3)cc1)N=C[C@@H]1CCCN1C2=O | 11.5 µM | 31.7 µM |  | 3.88 µM | 12.2 µM | 8.72 µM |  | 4.14 µM | 4.2 µM | 16.4 µM | 5.29 µM | 1.03 µM | 8.74 µM |  | 0.934 µM | 0.914 µM | 1.35 µM | 1.02 µM | 3.45 µM |
